Results taken from the supplement of paper PMC10307832.

Tests used:
Assay in all cases: relative viability (nuclei count vs DMSO), 5 days (fraction); higher = more cells survive
LC-2-ad = test system: LC-2-ad
Outline: (§1)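 For relative viability, nuclei counts in treated wells were divided by those in vehicle wells. Lung cancer cell lines had been pin-tool dosed in 1536-well plates the day after seeding and cultured for 5 days, then fixed and stained in one step (final 0.05% Triton X-100, 1% formaldehyde, 1 ug/ml Hoechst) and imaged at 4×. Doses were one drug alone or a fixed anchor-drug dose plus five library-drug doses (not always all listed) in √10 steps, and values are duplicate-plate medians.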

EKVX = test system: EKVX
Outline: as §1

201T = test system: 201T
Outline: as §1

BEN = test system: BEN
Outline: as §1

NCI-H3122 = test system: NCI-H3122
Outline: as §1

HCC-15 = test system: HCC-15
Outline: as §1

COR-L23 = test system: COR-L23
Outline: as §1

HCC-827 = test system: HCC-827
Outline: as §1

NCI-H1755 = test system: NCI-H1755
Outline: as §1

HARA = test system: HARA
Outline: as §1

LXF-289 = test system: LXF-289
Outline: as §1

RERF-LC-KJ = test system: RERF-LC-KJ
Outline: as §1

O=C(O)CCCCC(CCSCc1ccccc1)SCc1ccccc1 (configuration not stated) [CPI-613] + Nc1nc2[nH]cc(CCc3ccc(C(=O)N[C@@H](CCC(=O)O)C(=O)O)cc3)c2c(=O)[nH]1 [Pemetrexed] (partner 0.2 µM)
relative viability (LC-2-ad; first compound 50 µM): 0.254 | relative viability (LC-2-ad; first compound 158.11 µM): 0.116 | relative viability (LC-2-ad; first compound 500 µM): 0.0144 | relative viability (EKVX; first compound 5 µM): 0.373 | relative viability (EKVX; first compound 15.81 µM): 0.355 | relative viability (EKVX; first compound 50 µM): 0.306 | relative viability (EKVX; first compound 500 µM): 0.388 | relative viability (201T; first compound 5 µM): 0.268 | relative viability (201T; first compound 15.81 µM): 0.341 | relative viability (201T; first compound 50 µM): 0.327 | relative viability (201T; first compound 158.11 µM): 0.24 | relative viability (201T; first compound 500 µM): 0.179 | relative viability (BEN; first compound 5 µM): 0.809 | relative viability (BEN; first compound 15.81 µM): 0.571 | relative viability (BEN; first compound 50 µM): 0.763 | relative viability (BEN; first compound 158.11 µM): 0.76 | relative viability (BEN; first compound 500 µM): 0.703 | relative viability (NCI-H3122; first compound 5 µM): 0.19 | relative viability (NCI-H3122; first compound 15.81 µM): 0.194 | relative viability (NCI-H3122; first compound 50 µM): 0.181 | relative viability (NCI-H3122; first compound 158.11 µM): 0.181 | relative viability (NCI-H3122; first compound 500 µM): 0.153 | relative viability (HCC-15; first compound 5 µM): 0.231 | relative viability (HCC-15; first compound 15.81 µM): 0.227 | relative viability (HCC-15; first compound 50 µM): 0.221 | relative viability (HCC-15; first compound 158.11 µM): 0.155 | relative viability (HCC-15; first compound 500 µM): 0.0248 | relative viability (COR-L23; first compound 5 µM): 0.216 | relative viability (COR-L23; first compound 15.81 µM): 0.197 | relative viability (COR-L23; first compound 50 µM): 0.192 | relative viability (COR-L23; first compound 158.11 µM): 0.2 | relative viability (COR-L23; first compound 500 µM): 0.013 | relative viability (HCC-827; first compound 5 µM): 0.251 | relative viability (HCC-827; first compound 15.81 µM): 0.268 | relative viability (HCC-827; first compound 50 µM): 0.276 | relative viability (HCC-827; first compound 158.11 µM): 0.267 | relative viability (HCC-827; first compound 500 µM): 0.273 | relative viability (NCI-H1755; first compound 5 µM): 0.436 | relative viability (NCI-H1755; first compound 15.81 µM): 0.57 | relative viability (NCI-H1755; first compound 50 µM): 0.371 | relative viability (NCI-H1755; first compound 158.11 µM): 0.396 | relative viability (NCI-H1755; first compound 500 µM): 0.372 | relative viability (HARA; first compound 5 µM): 0.26 | relative viability (HARA; first compound 15.81 µM): 0.229 | relative viability (HARA; first compound 50 µM): 0.236 | relative viability (HARA; first compound 158.11 µM): 0.269 | relative viability (HARA; first compound 500 µM): 0.0403 | relative viability (LXF-289; first compound 5 µM): 0.903 | relative viability (LXF-289; first compound 15.81 µM): 0.828 | relative viability (LXF-289; first compound 50 µM): 0.851 | relative viability (LXF-289; first compound 158.11 µM): 0.757 | relative viability (LXF-289; first compound 500 µM): 0.568 | relative viability (RERF-LC-KJ; first compound 5 µM): 0.476 | relative viability (RERF-LC-KJ; first compound 15.81 µM): 0.47 | relative viability (RERF-LC-KJ; first compound 50 µM): 0.461 | relative viability (RERF-LC-KJ; first compound 158.11 µM): 0.341 | relative viability (RERF-LC-KJ; first compound 500 µM): 0.312
